Assay results: publication PMC6179248, “Peanut-specific T cell responses in patients with different clinical reactivity” (PLoS ONE, 2018)

Key:
[1] = system: PBMC from peanut allergic and non-allergic donors (IL-5 production); assay: IL-5 ELISPOT with individual peptides after 14-day in vitro expansion (epitope mapping); assay type: cell-based, human; conditions: SFC per 10^6 PBMC, individual peptide 10 μg/ml, 24 h, after 14-day culture; for IL-5 Average SFC (controls): non-allergic controls; for IL-5 Average SFC (allergics): allergic donors
Experimental: (§1) For in vitro expansions, PBMCs were thawed and cultured in RPMI 1640 (Omega Scientific, Tarzana, CA) supplemented with 5% human AB serum (Gemini Bio-Products, West Sacramento, CA) at a density of 2 × 10^6 cells per mL in 24-well plates (Corning, San Diego, CA) and stimulated with peanut extract (10 μg/ml) or peptide pools at 5 μg/mL. Cells were kept at 37°C, 5% CO2, and additional IL-2 (10 U/mL; ThermoFisher, San Diego, CA) was added every 3 days after initial antigenic stimulation. On day 14, cells were harvested and reactivity against peanut extract (10 μg/ml), peanut specific peptide pools (5 μg/ml) and individual peptides (10 μg/ml) was assessed. The production of IL-5 and IFNγ post-stimulation with peanut extract was analyzed in dual ELISPOT assays. Flat-bottom 96-well nitrocellulose plates (Millipore, Bedford, MA) were prepared according to the manufacturer’s instructions and coated with either 10 μg/ml of both anti-human IL-5 (clone TRFK5) and anti-human IFNγ (clone 1-D1K) or anti-human IL-10 (clone 9D7) and anti-human IL-17 (clone MT44.6) (Mabtech, Cincinnati, OH). PBMC were then incubated at a density of 1 × 10^5/well either with peptide pools (5 μg/ml) or individual peptides (10 μg/ml), peanut extract (10 μg/ml), PHA (10 μg/ml), or medium containing 0.25% DMSO (corresponding to the highest percentage of DMSO in the pools/peptides condition) as a control. After 24 h, cells were removed, and plates were incubated with a cocktail containing either biotinylated anti-human IL-5 (1:50 dilution) (clone 5A10) and horseradish peroxidase (HRP)-conjugated anti-human IFNγ (1:200 dilution) (clone 7-B6-1) or biotinylated anti-human IL-17 (1:200 dilution) (clone MT504) anti-human alkaline phosphatase (AP)-conjugated IL-10 (1:200 dilution) (clone 12G8) (Mabtech, Cincinnati, OH) at 37°C. After 2 h, spots corresponding to the biotinylated IL-5 Ab were developed by incubation with Alkaline-phosphatase-Complex (Vector Laboratories, Burlingame, CA) and then visualized by applying the Vector Blue Alkaline Phosphatase Substrate Kit III (Vector Laboratories, Burlingame, CA) according to the manufacturer’s instructions. Spots corresponding to the HRP-conjugated anti-human IFNγ Ab were visualized by incubation with 3-amino-9-ethylcarvazole solution (Sigma-Aldrich, St. Louis, MO). Spots were counted by computer-assisted image analysis (KS-ELISPOT reader, Zeiss, Munich). Each assay was performed in triplicate. The level of statistical significance was determined with a Student t test using the mean of triplicate values of the response against relevant pools or individual peptides versus the response against the DMSO control. Criteria for response positivity were 20 spot-forming cells (SFCs)/10^6 PBMC, p ≤ 0.05, and a stimulation index (SI) ≥ 2. SFCs are measured per 10^5 PBMC, subsequently readings are background subtracted and multiplied by 10 to be expressed as SFC per million PBMC. T cell epitope mapping was performed to determine epitopes from the major peanut allergens Ara h 1, 2 and 3, recognized by peanut allergic (n = 11) and non-allergic (n = 10) donors. As these studies were performed with samples obtained from pediatric patients, available blood sample volumes were limiting. To overcome this limitation, small pools of predicted peptides matched to the HLA molecules expressed in each donor were tested. For each donor, class II binding affinity predictions were performed using algorithms available through the IEDB (www.iedb.org)[18], to identify the top 6 predicted binders for each of the alleles expressed at the four HLA class II loci (DRB1, DRB3/4/5, DQB1, and DPB1). Accordingly, the screening load for each donor was reduced from 400 peptides to a maximum of 48 peptides (6 peptides x ≤8 class II molecules, less for homozygous donors). The six top predicted peptides for each allele were used to generate allele-specific pools, which were in turn used to expand peanut-specific cells in vitro. […]

[2] = system: PBMC from peanut allergic and non-allergic donors (IFNγ production); assay: IFNγ ELISPOT with individual peptides after 14-day in vitro expansion (epitope mapping); assay type: cell-based, human; conditions: SFC per 10^6 PBMC, individual peptide 10 μg/ml, 24 h, after 14-day culture; for IFNg Average SFC (controls): non-allergic controls; for IFNg Average SFC (allergics): allergic donors
Experimental: as §1

Row | Sequence | IL-5 Average SFC (controls) [1] [SFC] | IFNg Average SFC (controls) [2] [SFC] | IL-5 Average SFC (allergics) [1] [SFC] | IFNg Average SFC (allergics) [2] [SFC]
1 | NHRIVQIEARPNTLV [Ara h 1 15-mer, position 211] | 427 | 303 |  | 
2 | NNRKSFNLDEGHALR [Ara h 1 15-mer, position 251] | 82 | 55 |  | 
3 | NPINLREGEPDLSNN [Ara h 1 15-mer, position 396] | 457 | 240 |  | 
4 | NTNAHSIIYALRGRA [Ara h 3 15-mer, position 416; P19 pool member] | 163 | 77 | 32 | 0
5 | PHFNSKAMVIVVINK [Ara h 1 15-mer, position 446] | 0 | 58 | 41 | 15
6 | PHFNSKAMVIVVVNK [Ara h 1 15-mer, position 446] | 0 | 0 | 113 | 0
7 | QAGENSIIDNLPEEV [Ara h 3 15-mer, position 461; P19 pool member] | 33 | 0 | 79 | 61
8 | QEFECAGVALSRLVL [Ara h 3 15-mer, position 61] | 138 | 0 |  | 
9 | QEFLQHAFQVDRQTV [Ara h 3 15-mer, position 246] | 2210 | 390 | 57 | 0
10 | QEFLRYQQQQGSRPH [Ara h 3 15-mer, position 206] | 144 | 61 | 0 | 13
11 | QEFLRYQQQSRQSRR [Ara h 3 15-mer, position 206; P19 pool member] | 47 | 72 | 295 | 15
12 | QEFQCAGVALSRTVL [Ara h 3 15-mer, position 61] | 98 | 34 |  | 
13 | QGRGYFGLIFPGCPS [Ara h 3 15-mer, position 96] | 43 | 0 | 0 | 0
14 | QRSKQFQNLQNHRIV [Ara h 1 15-mer, position 201; P19 pool member] | 171 | 65 | 0 | 0
15 | QRSRQFQNLQNHRIV [Ara h 1 15-mer, position 201] | 216 | 102 | 0 | 0
16 | QSDNFEYVAFKTDSR [Ara h 3 15-mer, position 466; P19 pool member] | 123 | 373 | 164 | 0
17 | QSENYEYLAFKTDSR [Ara h 3 15-mer, position 441] | 419 | 95 | 0 | 0
18 | RCTKLEYDPRCVYDT [Ara h 1 15-mer, position 61] | 467 | 820 | 195 | 0

Row | Sequence | IL-5 Average SFC (controls) [1] [SFC] | IFNg Average SFC (controls) [2] [SFC] | IL-5 Average SFC (allergics) [1] [SFC] | IFNg Average SFC (allergics) [2] [SFC]
19 | RLKEGDVFIMPAAHP [Ara h 1 15-mer, position 503] | 120 | 83 |  | 
20 | RNNPFYFPSRRFSTR [Ara h 1 15-mer, position 171] |  |  | 100 | 0
21 | RRFYLAGNQEQEFLR [Ara h 3 15-mer, position 196] | 750 | 90 | 0 | 0
22 | RSSENNEGVIVEVSK [Ara h 1 15-mer, position 356] | 40 | 0 |  | 
23 | SGFAQEFLQHAFQVD [Ara h 3 15-mer, position 242] | 97 | 88 | 124 | 0
24 | SGFTPEFLAQAFQVD [Ara h 3 15-mer, position 266; P19 pool member] | 240 | 81 | 394 | 0
25 | SIIYALRGRAHVQVV [Ara h 3 15-mer, position 421; P19 pool member] | 358 | 249 | 400 | 89
26 | SNAPQEIFIQQGRGY [Ara h 3 15-mer, position 86] | 45 | 0 |  | 
27 | SNREVRRYTARLKEG [Ara h 1 15-mer, position 493] | 527 | 108 | 20 | 42
28 | SPLMLLLGILVLASV [Ara h 1 15-mer, position 6] | 30 | 0 | 0 | 0
29 | SRLVLRRNALRRPFY [Ara h 3 15-mer, position 71; P19 pool member] | 941 | 341 | 27 | 19
30 | SRTVLRRNALRRPFY [Ara h 3 15-mer, position 71] | 647 | 377 |  | 
31 | SSELHLLGFGINAEN [Ara h 1 15-mer, position 523] | 0 | 0 | 492 | 0
32 | TIVVALNGRAHVQVV [Ara h 3 15-mer, position 396] | 567 | 548 | 148 | 415
33 | TLNAHTIVVALNGRA [Ara h 3 15-mer, position 391] | 64 | 61 | 97 | 16
34 | VTVKGGLRILSPDEE [Ara h 3 15-mer, position 276] | 653 | 433 |  | 
35 | VTVRGGLRILSPDRK [Ara h 3 15-mer, position 301] | 44 | 93 | 196 | 19
